For 5 cell lines, relative viability results are on record in the supplement of paper PMC10307832.

What all share (test): relative viability (nuclei count vs DMSO), 5 days (fraction); higher = more cells survive
Compound in the test “MK-2206 + Vorinostat”: NC1(c2ccc(-c3nc4ccn5c(=O)[nH]nc5c4cc3-c3ccccc3)cc2)CCC1 [MK-2206] + O=C(CCCCCCC(=O)Nc1ccccc1)NO [Vorinostat] (partner 1 µM)
A digest of the protocol:
(§1)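 Values are medians from duplicate plates. Each reflects relative viability, defined as the nuclei count of treated wells over that of vehicle wells. Lung cancer cell lines in 1536-well plates were pin-tool dosed one day after seeding with one drug alone or with a fixed anchor-drug dose plus five library-drug doses (not always all listed) in √10 steps, then fixed, stained and imaged at 4× after 5 days.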

Compound in the test “Pictilisib + Bortezomib”: CS(=O)(=O)N1CCN(Cc2cc3nc(-c4cccc5[nH]ncc45)nc(N4CCOCC4)c3s2)CC1 [Pictilisib] + CC(C)C[C@H](NC(=O)[C@H](Cc1ccccc1)NC(=O)c1cnccn1)B(O)O [Bortezomib] (partner 0.002 µM)
The method in brief:
as §1

Compound in the test “Pictilisib + Tozasertib”: CS(=O)(=O)N1CCN(Cc2cc3nc(-c4cccc5[nH]ncc45)nc(N4CCOCC4)c3s2)CC1 [Pictilisib] + Cc1cc(Nc2cc(N3CCN(C)CC3)nc(Sc3ccc(NC(=O)C4CC4)cc3)n2)n[nH]1 [Tozasertib] (partner 0.1 µM)
The method in brief:
as §1

Compound in the test “MK-2206 + Linsitinib”: NC1(c2ccc(-c3nc4ccn5c(=O)[nH]nc5c4cc3-c3ccccc3)cc2)CCC1 [MK-2206] + C[C@]1(O)C[C@@H](c2nc(-c3ccc4ccc(-c5ccccc5)nc4c3)c3c(N)nccn32)C1 [Linsitinib] (partner 1 µM)
The method in brief: as §1

Compound in the test “Pictilisib + Phenformin”: CS(=O)(=O)N1CCN(Cc2cc3nc(-c4cccc5[nH]ncc45)nc(N4CCOCC4)c3s2)CC1 [Pictilisib] + N=C(N)NC(=N)NCCc1ccccc1 [Phenformin] (partner 250 µM)
A digest of the protocol: as §1

Consider PC-3 [JPC-3], for which the relative viability in the test with MK-2206 + Vorinostat (first compound 0.01 µM) was 0.796; with MK-2206 + Vorinostat (first compound 0.03162 µM), 0.691; with MK-2206 + Vorinostat (first compound 0.3162 µM) it was 0.826; with MK-2206 + Vorinostat (first compound 1 µM) it was 0.755; with Pictilisib + Bortezomib (first compound 0.02 µM), 0.795; with Pictilisib + Bortezomib (first compound 0.06325 µM), 0.87. Moreover, the relative viability stood at 0.896 in the test with Pictilisib + Bortezomib (first compound 0.6325 µM); 0.811 with Pictilisib + Bortezomib (first compound 2 µM); 0.84 in the test with Pictilisib + Tozasertib (first compound 0.02 µM); 0.893 with Pictilisib + Tozasertib (first compound 0.06325 µM); 0.736 in the test with Pictilisib + Tozasertib (first compound 0.6325 µM); 0.784 with Pictilisib + Tozasertib (first compound 2 µM). The relative viability was found to be 1.01 with MK-2206 + Linsitinib (first compound 0.01 µM); 0.938 with MK-2206 + Linsitinib (first compound 0.03162 µM); 0.91 with MK-2206 + Linsitinib (first compound 0.3162 µM); 0.97 with MK-2206 + Linsitinib (first compound 1 µM); 0.493 in the test with Pictilisib + Phenformin (first compound 0.02 µM); 0.539 in the test with Pictilisib + Phenformin (first compound 0.06325 µM). For the same cell line, the relative viability is 0.487 with Pictilisib + Phenformin (first compound 0.6325 µM) and 0.405 in the test with Pictilisib + Phenformin (first compound 2 µM).

Turning to PC-14, the relative viability in the test with MK-2206 + Vorinostat (first compound 0.01 µM) stood at 0.73; with MK-2206 + Vorinostat (first compound 0.03162 µM), 0.79; with MK-2206 + Vorinostat (first compound 0.3162 µM), 0.55; with MK-2206 + Vorinostat (first compound 1 µM), 0.669; with Pictilisib + Bortezomib (first compound 0.02 µM), 1.04; with Pictilisib + Bortezomib (first compound 0.06325 µM), 0.794. For the same cell line, the relative viability came to 0.89 with Pictilisib + Bortezomib (first compound 0.6325 µM); 0.573 in the test with Pictilisib + Bortezomib (first compound 2 µM); 0.61 in the test with Pictilisib + Tozasertib (first compound 0.02 µM); 0.583 with Pictilisib + Tozasertib (first compound 0.06325 µM); 0.641 with Pictilisib + Tozasertib (first compound 0.6325 µM); 0.46 with Pictilisib + Tozasertib (first compound 2 µM). Moreover, the relative viability in the test with MK-2206 + Linsitinib (first compound 0.01 µM) amounted to 0.869; with MK-2206 + Linsitinib (first compound 0.03162 µM), 1.03; with MK-2206 + Linsitinib (first compound 0.3162 µM) it was 0.862; in the test with MK-2206 + Linsitinib (first compound 1 µM) it was 0.92; with Pictilisib + Phenformin (first compound 0.02 µM) it was 0.858; with Pictilisib + Phenformin (first compound 0.06325 µM), 0.719. For the same cell line, the values for the relative viability in the test with Pictilisib + Phenformin (first compound 0.6325 µM) and in the test with Pictilisib + Phenformin (first compound 2 µM) were 0.621 and 0.386, respectively.

As for RERF-LC-KJ, the relative viability stood at 0.651 in the test with MK-2206 + Vorinostat (first compound 0.01 µM); 0.741 with MK-2206 + Vorinostat (first compound 0.03162 µM); 0.603 with MK-2206 + Vorinostat (first compound 0.3162 µM); 0.62 in the test with MK-2206 + Vorinostat (first compound 1 µM); 1.13 with Pictilisib + Bortezomib (first compound 0.02 µM); 1.13 with Pictilisib + Bortezomib (first compound 0.06325 µM). Further, the relative viability in the test with Pictilisib + Bortezomib (first compound 0.6325 µM) amounted to 1.09; in the test with Pictilisib + Bortezomib (first compound 2 µM), 0.672; with Pictilisib + Tozasertib (first compound 0.02 µM), 0.5; with Pictilisib + Tozasertib (first compound 0.06325 µM) it was 0.529; in the test with Pictilisib + Tozasertib (first compound 0.6325 µM) it was 0.477; with Pictilisib + Tozasertib (first compound 2 µM), 0.352. For the same cell line, the relative viability with MK-2206 + Linsitinib (first compound 0.01 µM) turned out to be 0.848; with MK-2206 + Linsitinib (first compound 0.03162 µM) it was 0.864; with MK-2206 + Linsitinib (first compound 0.3162 µM), 0.9; with MK-2206 + Linsitinib (first compound 1 µM), 0.789; with Pictilisib + Phenformin (first compound 0.02 µM), 0.409; with Pictilisib + Phenformin (first compound 0.06325 µM) it was 0.35. For the same cell line, the relative viability with Pictilisib + Phenformin (first compound 0.6325 µM) turned out to be 0.343; in the test with Pictilisib + Phenformin (first compound 2 µM), 0.307.

In the case of SK-LU-1, the relative viability with MK-2206 + Vorinostat (first compound 0.01 µM) was determined as 0.818; with MK-2206 + Vorinostat (first compound 0.03162 µM), 0.778; with MK-2206 + Vorinostat (first compound 0.3162 µM), 0.823; with MK-2206 + Vorinostat (first compound 1 µM), 0.735; with Pictilisib + Bortezomib (first compound 0.02 µM), 1.64; with Pictilisib + Bortezomib (first compound 0.06325 µM) it was 1.27. The relative viability stood at 0.81 with Pictilisib + Bortezomib (first compound 0.6325 µM); 0.63 in the test with Pictilisib + Bortezomib (first compound 2 µM); 0.362 in the test with Pictilisib + Tozasertib (first compound 0.02 µM); 0.304 with Pictilisib + Tozasertib (first compound 0.06325 µM); 0.3 with Pictilisib + Tozasertib (first compound 0.6325 µM); 0.233 in the test with Pictilisib + Tozasertib (first compound 2 µM). Also, the relative viability with MK-2206 + Linsitinib (first compound 0.01 µM) is 1.19; with MK-2206 + Linsitinib (first compound 0.03162 µM), 1.02; with MK-2206 + Linsitinib (first compound 0.3162 µM) it was 0.987; with MK-2206 + Linsitinib (first compound 1 µM), 1.01; in the test with Pictilisib + Phenformin (first compound 0.02 µM) it was 0.648; with Pictilisib + Phenformin (first compound 0.06325 µM), 0.509. Also, the relative viability came out at 0.393 with Pictilisib + Phenformin (first compound 0.6325 µM) and 0.308 in the test with Pictilisib + Phenformin (first compound 2 µM).

Regarding SW 1573, the relative viability in the test with MK-2206 + Vorinostat (first compound 0.01 µM) turned out to be 0.665; with MK-2206 + Vorinostat (first compound 0.03162 µM), 0.94; with MK-2206 + Vorinostat (first compound 0.3162 µM), 0.449; with MK-2206 + Vorinostat (first compound 1 µM), 0.6; with Pictilisib + Bortezomib (first compound 0.02 µM) it was 0.822; in the test with Pictilisib + Bortezomib (first compound 0.06325 µM) it was 1.08. The relative viability with Pictilisib + Bortezomib (first compound 0.6325 µM) was found to be 0.775; with Pictilisib + Bortezomib (first compound 2 µM) it was 0.333; with Pictilisib + Tozasertib (first compound 0.02 µM), 0.164; with Pictilisib + Tozasertib (first compound 0.06325 µM) it was 0.174; with Pictilisib + Tozasertib (first compound 0.6325 µM) it was 0.146; with Pictilisib + Tozasertib (first compound 2 µM) it was 0.137. The relative viability with MK-2206 + Linsitinib (first compound 0.01 µM) was 0.751; with MK-2206 + Linsitinib (first compound 0.03162 µM) it was 0.824; with MK-2206 + Linsitinib (first compound 0.3162 µM), 0.665; with MK-2206 + Linsitinib (first compound 1 µM), 0.592; with Pictilisib + Phenformin (first compound 0.02 µM) it was 0.387; with Pictilisib + Phenformin (first compound 0.06325 µM) it was 0.318. Further, the relative viability with Pictilisib + Phenformin (first compound 0.6325 µM) was determined as 0.215; with Pictilisib + Phenformin (first compound 2 µM), 0.166.
